# Measurements taken from patent publication US7223731B2, “Thrombospondin-1 type 1 repeat polypeptides” (Beth Israel Deaconess Medical Center, Inc., priority 2000, dated 2007).
# B1: 3TSR (TSP2): recombinant protein with all three TSRs of mouse TSP-2, amino acids Asp 381 through Ile 550 (protein, listed as Mus musculus)
# chain: DEGWSPWAEWTECSVTCGSGTQQRGRSCDVTSNTCLGPSIQTRTCSLGKCDTRIRQNGGWSHWSPWSSCSVTCGVGNVTRIRLCNSPVPQMGGKNCKGSGRETKPCQRDPCPIDGRWSPWSPWSACTVTCAGGIRERSRVCNSPEPQYGGKDCVGDVTEHQMCNKRSCPI
# B2: TSR2+RFK: recombinant longer version of the second type 1 repeat of human TSP-1 including the RFK sequence, amino acids 411–473 (protein, listed as Homo sapiens)
# chain: DKRFKQDGGWSHWSPWSSCSVTCGDGVITRIRLCNSPSPQMNGKPCEGEARETKACKKDACPI
# Columns and labels:
# B16F10 melanoma = assay: Primary tumor growth assay, B16F10 melanoma; assay type: in vivo, C57BL/6 mice; settings: for inhibition of B16F10 tumor growth: twelfth day of treatment
# Procedure: The proteins for injection were mixed with Polymyxin B-Agarose (Sigma) for 30 minutes at room temperature to remove endotoxin. The endotoxin levels were less than 0.05 EU/mg as determined using the QCL-1000 assay kit (Biowhittaker, Walkersville, Md.). Proteins were filter-sterilized and the protein concentration was determined prior to injection.
# (§1) Five to eight week old C57BL/6 mice (Taconic, Germantown, N.Y.) were acclimated, caged in groups of four or less and their backs were shaved. Cultured B16F10 melanoma or Lewis lung carcinoma cells (1×10^6) were inoculated subcutaneously on the back of each mouse. Tumors were measured with a dial-caliper and the volumes were determined using the formula width^2×length×0.52. The treatment began 4 days after inoculation of the tumor cells. […] The experiments were terminated and mice sacrificed when the control mice began to die, usually at day 16 post-tumor cell injection.
# Each treatment group contained six five- to eight-week old C57BL/6 mice. Treatment was initiated four days after subcutaneous injection of 1×10^6 B16F10 melanoma cells. The mice received one IP injection each day of saline, TSR2, TSR2+RFK or TSR2+QFK (SEQ ID NO: 23). A soluble form of the TGFβ receptor (100 μg/mouse/injection) (Smith, J. D. et al., Circulation Research 84:1212–1222, 1999) was included in the saline or TSR2+RFK injections on treatment day 1 and 7 for two additional experimental groups. The recombinant TSR-containing proteins were used at 1.0 mg/kg/day.
# Each treatment group contained six five- to eight-week old C57BL/6 mice. Treatment was initiated four days after subcutaneous injections of 1×10^6 B16F10 melanoma cells. The mice received one IP injection each day, of saline, all three type 1 repeats of human TSP-1 [3TSR (TSP1) in FIG. 9] or all three type 1 repeats of mouse TSP-2 [3TSR (TSP2) in FIG. 9]. Recombinant proteins were used at a dose of 2.5 mg/kg/day.
# [1] = test system: Human dermal microvessel endothelial cells (HDMEC); assay: In vitro endothelial cell migration assay (FGF-2 induced, transwell); assay type: cell-based; settings: for concentration maximally effective in inhibiting endothelial cell migration: HDMEC migration in response to FGF-2
# Procedure: Human dermal microvessel endothelial cells (HDMEC) were isolated by the procedure of Richard et al., Exp. Cell Res. 240:1–6 (1998). The cells were cultured in Vitrogen precoated dishes, and maintained in EBM (Clonetics Corp, San Diego, Calif.) containing 20% fetal bovine serum (FBS), 1 mg/ml hydrocortisone acetate, 5×10^−5 M dibutyryl-cAMP, 200 U/ml penicillin, 100 U/ml streptomycin, 250 mg/ml amphotericin and 2–5 ng/ml VEGF. Murine melanoma B16F10 and murine Lewis lung carcinoma cells were obtained from the ATCC, and were maintained in Dulbecco's Modified Eagle Media (DMEM) supplemented with 10% FBS, […] penicillin, 50 U/ml streptomycin, and 2 mM glutamine (supplemented DMEM). Mink lung epithelial cells (MLECs-Clone 32) that have been stably transfected with an 800 bp fragment of the plasminogen activator inhibitor-1 (PAI-1) promoter fused to the firefly luciferase reporter gene were kindly provided by Dr. Daniel Rifkin (Abe, M. et al., Anal. Biochem. 216:276–284, 1994). The transfected MLECs were maintained in supplemented DMEM.
# Cells at passage 7–10 were serum-starved and maintained in EBM with 0.1% BSA (control media) for 20 hours before trypsinization to harvest the cells. Cells were washed in EBM twice and resuspended in control media at a concentration of 1×10^6 cells/ml. […] of cells were packed down and kept frozen. They were lysed and serially diluted by CyQuant reagent (Molecular Probe, Eugene, Oreg.) to be used for standard curve construction.
# Transwell membrane (24-well polycarbonate membrane, […] from Corning Costar Corporation, Cambridge, Mass.) coated with Vitrogen (30 mg/ml, Invitrogen) on both sides was used for chemotactic migration experiments. Coated transwells were inverted, […] of cell suspension applied to the top of the membrane and covered by the bottom plate carefully so that the cell suspension stayed on top of the membrane. The cells were allowed to adhere to the coated membrane for two hours in an incubator at 37° C. with 5% CO2. After the adhesion incubation, the plates were re-inverted, the bottom wells were filled with 0.4 ml control media and the top wells were filled with 0.1 ml control media containing testing reagents. The plate was returned to the incubator for 3.5 hours for the cells to migrate. At the end of the incubation, the transwells were washed in PBS and the cells on the […] of the membrane (unmigrated cells) were wiped away with a cotton swab. The membranes were cut out by scalpel and placed into 96-well plates and frozen at −80° C. overnight. […] Fluorescence reading was done 16 hours later with a SpectraFluor plate reader with excitation at 485 nm and emission at […]. The number of cells migrated was then calculated based on the standard curve.
# B16F10 tumor cell = B16F10 tumor cell proliferation in vitro; assay type: cell-based, murine
# TGFβ = assay: Assay for TGFβ activation (MLEC luciferase assay on B16F10 conditioned media); assay type: cell-based, murine; settings: for level of the active form of TGFβ as % of the total TGFβ: 5 μg/ml protein added, media conditioned by B16F10 melanoma cells, control 6.3%; for activation of TGFβ (in words): culture supernatant from B16F10 cells
# Procedure: Human dermal microvessel endothelial cells (HDMEC) were isolated by the procedure of Richard et al., Exp. Cell Res. 240:1-6 (1998). The cells were cultured in Vitrogen precoated dishes, and maintained in EBM (Clonetics Corp, San Diego, Calif.) containing 20% fetal bovine serum (FBS), 1 mg/ml hydrocortisone acetate, 5×10^-5 M dibutyryl-cAMP, 200 U/ml penicillin, 100 U/ml streptomycin, 250 mg/ml amphotericin and 2-5 ng/ml VEGF. Murine melanoma B16F10 and murine Lewis lung carcinoma cells were obtained from the ATCC, and were maintained in Dulbecco's Modified Eagle Media (DMEM) supplemented with 10% FBS, […] penicillin, 50 U/ml streptomycin, and 2 mM glutamine (supplemented DMEM). Mink lung epithelial cells (MLECs-Clone 32) that have been stably transfected with an 800 bp fragment of the plasminogen activator inhibitor-1 (PAI-1) promoter fused to the firefly luciferase reporter gene were kindly provided by Dr. Daniel Rifkin (Abe, M. et al., Anal. Biochem. 216:276-284, 1994). The transfected MLECs were maintained in supplemented DMEM. B16F10 cells (2.5×10^5) were plated in a T25 flask and grown overnight in supplemented DMEM. The cells were rinsed once with 1.0 ml of serum-free DMEM and 2.5 ml of serum-free DMEM containing […] of the TSR, or […] recombinant protein were added. After an overnight incubation, conditioned media was collected and centrifuged at 12,000 rpm for 5 min to remove cellular debris. Undiluted media was used to determine the level of active TGFβ. The level of total TGFβ was determined by incubating the media at 80° C. for 10 min and diluting 1:5 in DMEM. One hundred microliters of conditioned media were added to wells of a 96-well plate containing 3×10^4 MLECs and the plates were incubated overnight. A standard curve was constructed by incubating 7.8 to 250 pg/ml of purified TGFβ with the […].) in DMEM. The media was removed and the cells were washed 3 times with cold PBS prior to the addition of […] of lysis buffer (PharMingen, San Diego, Calif.). Luciferase activity was measured using the Enhanced Luciferase Assay Kit PharMingen).
# B16F10 tumors = assay: Histological examination of B16F10 tumors (anti-CD31, TUNEL, PCNA); assay type: in vivo, C57BL/6 mice; settings: 1.0 mg/kg/day, twelfth treatment day; for decrease in number of proliferating tumor cells: PCNA positive cells; for increase in tumor cell apoptosis: TUNEL; for reduction in capillary density: anti-CD31
# Procedure: The tumor tissues were cut, fixed with neutral buffered formaldehyde, and embedded in paraffin according to standard histological procedures. Hematoxylin and eosin staining was employed for tissue morphology examination. Blood vessels were immunochemically stained by anti-CD31 antibody with a Vectastain ABC kit (Vector Laboratories, Burlingame, Calif.). Tumor cell apoptosis was detected by TUNEL assay (Abe, M. et al., Anal. Biochem, 216:276–84, 1994). The number of blood vessels was recorded by counting ten high-power fields. Tumor cell proliferation and the apoptotic index were estimated by the percentage of cells scored under a light microscope. A minimum of 1,000 cells was counted in each tumor sample. To better understand the effect of the recombinant protein treatment on tumor growth, we have determined the rate of proliferation, the apoptotic index and the capillary density for tumors in the saline control group, mice treated with the TSR2+RFK protein or mice treated with the TSR2 protein at an intermediate dose (1.0 mg/kg/day) where the largest effect of inclusion of the RFK sequence is observed. Tumors were removed and fixed on the twelfth treatment day. Capillaries were visualized with anti-CD31 antibody and apoptotic cells were identified by TUNEL. […] The number of proliferating cells was decreased by 35% by treatment with the TSR2+RFK protein (p<0.005), while treatment with the TSR2 protein reduced tumor cell proliferation by 7.8% (p<0.05) (FIG. 6C).
# Lewis lung carcinoma = assay: Primary tumor growth assay, Lewis lung carcinoma; assay type: in vivo, C57BL/6 mice; settings: 2.5 mg/kg/day IP daily, treatment day 12
# Procedure: as §1, with “The proteins for injection were mixed with Polymyxin B-Agarose (Sigma) for 30 minutes at room temperature to remove endotoxin. The endotoxin levels were less than 0.05 EU/mg as determined using the QCL-1000 assay kit (Biowhittaker, Walkersville, Md.). Proteins were filter-sterilized and the protein concentration was determined prior to injection. Five” for “Five”
molecule,measurement,setting,value
TSR2+QFK: recombinant version of the TSR2+RFK protein in which Q is substituted for R (arginine 413 to glutamine),B16F10 tumor growth inhibition (in words),"B16F10 melanoma; 1.0 mg/kg/day IP daily, FIG. 8",less effective as an inhibitor of tumor growth than TSR2+RFK
TSP-1: Human TSP-1 purified from the supernatant of thrombin-treated platelets,concentration up to which inhibition of endothelial cell migration is dose-dependent,"[1]; biphasic response, concentrations above this level are less effective",100 ng/mL
same,reduction of tumor growth,B16F10 melanoma; 0.25 mg/kg/day (0.6 nmoles/kg/day) injection,56%
same,B16F10 tumor growth inhibition (in words),B16F10 melanoma; 2.5 mg/kg/day IP daily,no effect
same,inhibition of tumor growth,"B16F10 melanoma; systemic injection, 0.25 mg/ml as printed, twelfth treatment day",56%
TGFβ [reference compound],B16F10 tumor cell proliferation in vitro (in words),B16F10 tumor cell,inhibit
"TSR2: recombinant protein that contains the second TSR of human TSP-1, amino acids 416–473, excludes DKRFK",concentration maximally effective in inhibiting endothelial cell migration,[1],10 ng/mL
same,B16F10 tumor growth inhibition (in words),B16F10 melanoma; 0.25 mg/kg/day IP daily,indistinguishable from the control group
same,inhibition of B16F10 tumor growth,B16F10 melanoma; 1.0 mg/kg/day IP daily,38%
same,inhibition of B16F10 tumor growth (tumor volume),B16F10 melanoma; 2.5 mg/kg/day IP daily,68%
same,level of the active form of TGFβ as % of the total TGFβ,TGFβ,4.8%
same,activation of TGFβ (in words),TGFβ,does not
same,decrease in number of proliferating tumor cells,B16F10 tumors,7.8%
same,increase in tumor cell apoptosis,B16F10 tumors,1.9 fold
same,reduction in capillary density,B16F10 tumors,64%
"3TSR: recombinant protein containing all three TSRs of human TSP-1, amino acids 361–530",concentration maximally effective in inhibiting endothelial cell migration,[1],10 ng/mL
same,B16F10 tumor growth inhibition (in words),B16F10 melanoma; 0.25 mg/kg/day IP daily,less effective
same,inhibition of B16F10 tumor growth (tumor volume),B16F10 melanoma; 2.5 mg/kg/day IP daily,81%
same,B16F10 tumor growth inhibition (in words),B16F10 melanoma; 10 mg/kg/day,remains maximally active
same,B16F10 tumor growth inhibition compared with TSP-1 (in words),B16F10 melanoma; dosages of 1.0 mg/kg/day and greater,more effective than TSP-1
same,inhibition of Lewis lung carcinoma tumor growth,Lewis lung carcinoma,73%
B1,B16F10 tumor growth inhibition (in words),B16F10 melanoma; 2.5 mg/kg/day IP daily,significantly less potent
B2,concentration maximally effective in inhibiting endothelial cell migration,[1],10 ng/mL
same,inhibition of B16F10 tumor growth,B16F10 melanoma; 1.0 mg/kg/day IP daily,80%
same,inhibition of B16F10 tumor growth (tumor volume),B16F10 melanoma; 2.5 mg/kg/day IP daily,86%
same,inhibition of Lewis lung carcinoma tumor growth,Lewis lung carcinoma,77%
same,level of the active form of TGFβ as % of the total TGFβ,TGFβ,30%
same,activation of TGFβ (in words),TGFβ,activates TGFβ
same,B16F10 tumor cell proliferation in vitro (in words),B16F10 tumor cell,inhibit
same,decrease in number of proliferating tumor cells,B16F10 tumors,35%
same,increase in tumor cell apoptosis,B16F10 tumors,4 fold
same,reduction in capillary density,B16F10 tumors,71%
